In paper PMC7780120, “Modulators of histone demethylase JMJD1C selectively target leukemic stem cells” (FEBS Open Bio, 2020) one finds Kd data, which are given here for one compound.

This experiment concerns the target T1, JMJD1C (partial, 2274-2498aa) (Homo sapiens, UniProt Q15652).
T1 construct: immobilised on CM7 chip
T1 sequence (Q15652 2274-2498): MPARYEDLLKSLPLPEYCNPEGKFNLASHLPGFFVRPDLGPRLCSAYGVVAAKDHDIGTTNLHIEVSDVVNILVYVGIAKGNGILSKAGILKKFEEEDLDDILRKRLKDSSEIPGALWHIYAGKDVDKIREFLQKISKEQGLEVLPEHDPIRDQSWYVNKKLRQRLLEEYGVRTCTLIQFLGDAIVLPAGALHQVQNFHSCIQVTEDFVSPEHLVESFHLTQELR
The experiment is described as follows: SPR, immobilised protein, […] Langmuir fit. The class given is binding. A general note: In SPR one partner is held on a chip, and binding of the other changes the refractive index at the surface.

One may read the Kd as the free concentration of one partner at which half of the binding sites on the other are occupied at equilibrium, for simple one-to-one binding. Low readings indicate higher affinity, high ones lower affinity.

`CN1CC(=O)N2[C@H](c3ccc4c(c3)OCO4)c3[nH]c4ccccc4c3C[C@@H]2C1=O` [tadalafil] gave a Kd of 256 µM.
